The text below walks through data of patent publication US20240116845A1, “INDENE COMPOUNDS, PHARMACEUTICAL COMPOSITIONS THEREOF, AND THEIR THERAPEUTIC APPLICATIONS” (NucMito Pharmaceuticals Co., Ltd., priority 2021, published 2024).

Assay type in all cases: cell-based
Assay [1] relates to alpha-smooth muscle actin (α-SMA). Put plainly: Inhibition of TGF-β induced expression of alpha-smooth muscle actin in CFSC cells (western blot). Particulars: compound at 10 μM, TGF-β (10 ng/mL), 24 hours. Summed up: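 Rat CCl4-treated hepatic stellate (CFSC) cells in serum-free DMEM were given compound at 10 μM plus TGF-β 10 ng/mL for 24 h at 37 °C. α-SMA measured by western blot with β-actin, bands quantified densitometrically. Percent inhibition is the decrease in band intensity versus TGF-β alone.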
(In general: In western blotting, separated proteins are transferred to a membrane and probed.)

The test system of assay [2] is A431 (epidermoid carcinoma). Put plainly: Antiproliferative activity, CCK-8 cell viability. Particulars: Homo sapiens, A-431, 72 h, read-out: Inhibition of Cancerous Cells, A431; for inhibition at 3.3 µM: compound concentration of 3.3 μM; for inhibition at 10 µM: compound concentration of 10 μM; for inhibition at 30 µM: compound concentration of 30 μM. Summed up:
(§1)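 Cells in DMEM with 10% FBS were treated with compound at 3.3, 10 or 30 μM for 72 h at 37°C. Viability was read by CCK-8 absorbance at 450 nm and expressed relative to DMSO-treated cells. Growth inhibition was binned as ≥50%, 30–50% or <30%.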

The subject of assay [3] is B16F10 (malignant melanoma). Put plainly: Antiproliferative activity, CCK-8 cell viability. Particulars: Mus musculus, B16-F10, 72 h, read-out: Inhibition of Cancerous Cells, B16F10; for inhibition at 3.3 µM: compound concentration of 3.3 μM; for inhibition at 10 µM: compound concentration of 10 μM; for inhibition at 30 µM: compound concentration of 30 μM. Summed up: as §1

For another assay, the system named is SW480 (colon cancer). In words: Antiproliferative activity, CCK-8 cell viability. Particulars: Homo sapiens, 72 h, read-out: Inhibition of Cancerous Cells, SW480; for inhibition at 3.3 µM: compound concentration of 3.3 μM; for inhibition at 10 µM: compound concentration of 10 μM; for inhibition at 30 µM: compound concentration of 30 μM. Summed up:
as §1

The subject of another assay is HepG2 (liver cancer). In words: Antiproliferative activity, CCK-8 cell viability. Particulars: Homo sapiens, 72 h, read-out: Inhibition of Cancerous Cells, HepG2; for inhibition at 3.3 µM: compound concentration of 3.3 μM; for inhibition at 10 µM: compound concentration of 10 μM; for inhibition at 30 µM: compound concentration of 30 μM. Summed up:
as §1

A further assay deals with HeLa (cervical cancer). In words: Antiproliferative activity, CCK-8 cell viability. Particulars: Homo sapiens, 72 h, read-out: Inhibition of Cancerous Cells, HELA; for inhibition at 3.3 µM: compound concentration of 3.3 μM; for inhibition at 10 µM: compound concentration of 10 μM; for inhibition at 30 µM: compound concentration of 30 μM.
Assay [4] relates to A549 (lung adenocarcinoma). In words: Antiproliferative activity, CCK-8 cell viability. Particulars: Homo sapiens, 72 h, read-out: Inhibition of Cancerous Cells, A549; for inhibition at 3.3 µM: compound concentration of 3.3 μM; for inhibition at 10 µM: compound concentration of 10 μM; for inhibition at 30 µM: compound concentration of 30 μM.
Assay [5] concerns MDA-MB-231 (breast cancer). Put plainly: Antiproliferative activity, CCK-8 cell viability. Particulars: Homo sapiens, 72 h, read-out: Inhibition of Cancerous Cells, MDA-MB-231; for inhibition at 3.3 µM: compound concentration of 3.3 μM; for inhibition at 10 µM: compound concentration of 10 μM; for inhibition at 30 µM: compound concentration of 30 μM. Summed up: as §1

SMILES strings stand for the structures. Some results are limits rather than exact numbers.

In the case of `CC1=C(CC(=O)O)c2c(F)cc(F)cc2/C1=C\c1cccc(Oc2ccccc2)c1` [Compound D21, 2-[(1Z)-4,6-Difluoro-1-(3-(phenoxy)benzylidene)-2-methyl-1H-inden-3-yl]-acetic acid], the inhibition at 10 µM in assay [1] was at least 80%; in assay [2], 30 to 50%; in assay [3] it was at least 50%; with SW480 (colon cancer), at least 50%; in the assay with HepG2 (liver cancer), 30 to 50%; in the assay on HeLa (cervical cancer) it was at least 50%. Further, the inhibition at 10 µM in assay [4] and in assay [5] was at least 50% in each case. Further, the inhibition at 3.3 µM was under 30% in assay [2]; at least 50% in assay [3]; 30 to 50% in the assay with SW480 (colon cancer); 30 to 50% with HepG2 (liver cancer); under 30% in the assay with HeLa (cervical cancer); 30 to 50% in assay [4]. Further, in assay [5], the inhibition at 3.3 µM was at least 50%. In addition, the inhibition at 30 µM (in assay [2]; in assay [3]; with SW480 (colon cancer); in the assay with HepG2 (liver cancer); in the assay on HeLa (cervical cancer); in assay [4]) was at least 50% each time. In addition, in assay [5], the inhibition at 30 µM is at least 50%.
Turning to `CC1=C(CC(=O)O)c2cc(F)ccc2/C1=C\c1ccc(Oc2ccc(F)cc2)c(C)c1` [Compound D13, 2-[(1Z)-1-{[3-Methyl-4-(4-fluorophenoxy)phenyl]methylidene}-5-fluoro-2-methyl-1H-inden-3-yl]acetic acid], the inhibition at 10 µM in assay [1] is under 30%; in assay [2], at least 50%; in assay [3], at least 50%; in the assay on SW480 (colon cancer), at least 50%; with HepG2 (liver cancer), 30 to 50%; with HeLa (cervical cancer) it was 30 to 50%. Moreover, the inhibition at 10 µM in assay [4] and in assay [5] was at least 50% throughout. Further, the inhibition at 3.3 µM is 30 to 50% in assay [2]; at least 50% in assay [3]; 30 to 50% in the assay with SW480 (colon cancer); 30 to 50% in the assay with HepG2 (liver cancer); under 30% in the assay on HeLa (cervical cancer); 30 to 50% in assay [4]. Also, in assay [5], the inhibition at 3.3 µM was under 30%. The inhibition at 30 µM (in assay [2]; in assay [3]; with SW480 (colon cancer); in the assay with HepG2 (liver cancer); with HeLa (cervical cancer); in assay [4]) was at least 50% throughout. Also, the inhibition at 30 µM in assay [5] was at least 50%.
As to `CC1=C(CC(=O)N(C)O)c2cc(F)ccc2/C1=C\c1cccc(Oc2ccccc2)c1` [Compound B5, (Z)-2-(5-Fluoro-2-methyl-1-(3-phenoxybenzylidene)-1H-inden-3-yl)-N-hydroxy-N-methylacetamide], the inhibition at 10 µM is 50 to 80% in assay [1]; at least 50% in assay [2]; at least 50% in assay [3]; at least 50% with SW480 (colon cancer); at least 50% in the assay with HepG2 (liver cancer); at least 50% with HeLa (cervical cancer). Moreover, the inhibition at 10 µM in assay [4] and in assay [5] was at least 50% throughout. The inhibition at 3.3 µM in assay [2] is at least 50%; in assay [3], 30 to 50%; in the assay on SW480 (colon cancer), 30 to 50%; with HepG2 (liver cancer), at least 50%; with HeLa (cervical cancer), under 30%; in assay [4], 30 to 50%. Also, in assay [5], the inhibition at 3.3 µM was under 30%. The inhibition at 30 µM (in assay [2]; in assay [3]; in the assay with SW480 (colon cancer); in the assay with HepG2 (liver cancer); in the assay with HeLa (cervical cancer); in assay [4]) was at least 50% each time. Besides, in assay [5], the inhibition at 30 µM was at least 50%.
For the compound `CC1=C(CC(=O)O)c2cc(F)ccc2/C1=C\c1ccc(CN(Cc2ccccc2)c2ccccc2)cc1` [Compound A10, 2-[(1Z)-1-[(4-{[Benzyl(phenyl)amino]methyl}phenyl)methylidene]-5-fluoro-2-methyl-1H-inden-3-yl]acetic acid], the inhibition at 10 µM in assay [1] is at least 80%; in assay [2], at least 50%; in assay [3], at least 50%; in the assay on SW480 (colon cancer) it was at least 50%; in the assay on HepG2 (liver cancer), at least 50%; in the assay with HeLa (cervical cancer) it was at least 50%. The inhibition at 10 µM in assay [4] and in assay [5] was at least 50% each time. For the same compound, the inhibition at 3.3 µM was at least 50% in assay [2]; under 30% in assay [3]; at least 50% with SW480 (colon cancer); at least 50% in the assay on HepG2 (liver cancer); at least 50% with HeLa (cervical cancer); 30 to 50% in assay [4]. Further, the inhibition at 3.3 µM in assay [5] is at least 50%. Besides, the inhibition at 30 µM (in assay [2]; in assay [3]; in the assay with SW480 (colon cancer); with HepG2 (liver cancer); in the assay with HeLa (cervical cancer); in assay [4]) was at least 50% in each case. Also, the inhibition at 30 µM in assay [5] was at least 50%.
On to `CC1=C(CC(=O)O)c2cc(F)ccc2/C1=C\c1cccc(CCc2ccccc2)c1` [Compound A17, 2-[(1Z)-5-Fluoro-2-methyl-1-{[3-(2-phenylethyl)phenyl]methylidene}-1H-inden-3-yl]acetic acid], for which the inhibition at 10 µM was under 30% in assay [1]; at least 50% in assay [2]; at least 50% in assay [3]; at least 50% with SW480 (colon cancer); at least 50% in the assay with HepG2 (liver cancer); at least 50% in the assay on HeLa (cervical cancer). Further, the inhibition at 10 µM in assay [4] and in assay [5] was at least 50% each time. Besides, the inhibition at 3.3 µM in assay [2] is under 30%; in assay [3], 30 to 50%; with SW480 (colon cancer) it was at least 50%; in the assay with HepG2 (liver cancer) it was at least 50%; with HeLa (cervical cancer), 30 to 50%; in assay [4] it was at least 50%. Also, in assay [5], the inhibition at 3.3 µM was at least 50%. In addition, the inhibition at 30 µM (in assay [2]; in assay [3]; with SW480 (colon cancer); in the assay on HepG2 (liver cancer); in the assay on HeLa (cervical cancer); in assay [4]) was at least 50% each time. The inhibition at 30 µM in assay [5] is at least 50%.
`CC1=C(CC(=O)O)c2cc(F)ccc2/C1=C\c1cccc(Oc2cccc(C(F)(F)F)c2)c1` [Compound D27, 2-[(1Z)-5-Fluoro-2-methyl-1-({3-[3-trifluoromethylphenoxy]phenyl}-methylidene)-1H-inden-3-yl]acetic acid]: the inhibition at 10 µM in assay [1] was at least 80%; in assay [2], at least 50%; in assay [3], 30 to 50%; with SW480 (colon cancer), at least 50%; in the assay on HepG2 (liver cancer), at least 50%; in the assay on HeLa (cervical cancer), 30 to 50%. The results for the inhibition at 10 µM in assay [4] and in assay [5] were 30 to 50% and at least 50%, respectively. Also, the inhibition at 3.3 µM in assay [2] was under 30%; in assay [3], under 30%; with SW480 (colon cancer), 30 to 50%; with HepG2 (liver cancer), at least 50%; in the assay with HeLa (cervical cancer), under 30%; in assay [4], 30 to 50%. For the same compound, in assay [5], the inhibition at 3.3 µM was at least 50%. Moreover, the inhibition at 30 µM (in assay [2]; in assay [3]; in the assay with SW480 (colon cancer); in the assay with HepG2 (liver cancer); with HeLa (cervical cancer); in assay [4]) was at least 50% each time. Further, in assay [5], the inhibition at 30 µM was at least 50%.

As a reminder, the inhibition is the relative decrease from the control value, in per cent.
